Measurements reported in patent US20060069132A1, “Azolecarboxamide herbicides” (priority 2004, published 2006).

Assays:
rice [1] = assay: Test B flooded paddy test; assay type: in vivo, Oryza sativa; conditions: 1000 g ai/ha, scale 0 to 100 (0 no effect, 100 complete control)
In short: (§1)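 Visual ratings, 0 (no effect) to 100 (complete control), made versus controls after 13–15 d greenhouse. Paddy plants treated at 2-leaf stage; postemergence plants at 1- to 4-leaf stage, 2–18 cm tall.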

morningglory = assay: Test B pre-/postemergence herbicide test; assay type: in vivo, Ipomoea coccinea; conditions: for Morningglory plant response rating: postemergence
In short: (§2)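 Visual rating, 0 (no effect) to 100 (complete control), versus untreated controls after 13–15 d in greenhouse. Pre- and postemergence applications (postemergence plants 2–18 cm, 1–4 leaves); flooded paddy arm at 2-leaf stage. Compounds in non-phytotoxic solvent plus surfactant.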

large crabgrass = assay: Test B pre-/postemergence herbicide test; assay type: in vivo, Digitaria sanguinalis; conditions: for Crabgrass, Large plant response rating: postemergence
In short: (§3)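 Seeds were planted and treated preemergence with compounds formulated in a non-phytotoxic solvent mixture containing surfactant, while plants at the 1- to 4-leaf stage (2 to 18 cm) received postemergence sprays. Flooded paddy plants were grown to the 2-leaf stage. After 13 to 15 days in a greenhouse, injury was visually rated 0–100 against untreated controls.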

pigweed = assay: Test B pre-/postemergence herbicide test; assay type: in vivo, Amaranthus retroflexus; conditions: for Pigweed plant response rating: postemergence
In short: as §3

ducksalad [2] = assay: Test B flooded paddy test; assay type: in vivo, Heteranthera limosa; conditions: 1000 g ai/ha, scale 0 to 100 (0 no effect, 100 complete control)
In short: as §1

lambsquarters = assay: Test B pre-/postemergence herbicide test; assay type: in vivo, Chenopodium album; conditions: for Lambsquarters plant response rating: postemergence
In short: as §3

velvetleaf = assay: Test B pre-/postemergence herbicide test; assay type: in vivo, Abutilon theophrasti; conditions: for Velvetleaf plant response rating: postemergence
In short: as §3

wild oat = assay: Test B postemergence herbicide test; assay type: in vivo, Avena fatua; conditions: postemergence
In short: (§4)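 Treated at 2-leaf (paddy) or 1–4-leaf, 2–18 cm (postemergence); greenhouse 13–15 d; visual score vs control, 0 none to 100 complete control; dash = not tested.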

Surinam grass = assay: Test B pre-/postemergence herbicide test; assay type: in vivo, Urochloa decumbens; conditions: for Surinam Grass plant response rating: postemergence
In short: as §3

[3] = tested on: small flower umbrella sedge; assay: Test B flooded paddy test; assay type: in vivo, Cyperus difformis; conditions: 1000 g ai/ha, scale 0 to 100 (0 no effect, 100 complete control)
In short: as §1

barnyardgrass [4] = assay: Test B flooded paddy test; assay type: in vivo, Echinochloa crus-galli; conditions: 1000 g ai/ha, scale 0 to 100 (0 no effect, 100 complete control)
In short: as §1

barnyardgrass [5] = assay: Test B pre-/postemergence herbicide test; assay type: in vivo, Echinochloa crus-galli; conditions: for Barnyardgrass plant response rating: postemergence, scale 0 (no effect) to 100 (complete control)
In short: as §2

blackgrass = assay: Test B postemergence herbicide test; assay type: in vivo, Alopecurus myosuroides; conditions: postemergence, visual rating, scale 0 (no effect) to 100 (complete control)
In short: as §1

corn = assay: Test B pre-/postemergence herbicide test; assay type: in vivo, Zea mays; conditions: for Corn plant response rating: postemergence
In short: as §3

wheat = assay: Test B postemergence herbicide test; assay type: in vivo, Triticum aestivum; set-up: key to Wheat plant response rating: 0 = no effect, 100 = complete control; conditions: postemergence
In short: as §4

ducksalad [6] = assay: Test C flooded paddy test; assay type: in vivo, Heteranthera limosa
[7] = tested on: smallflower umbrella sedge; assay: Test C flooded paddy test; assay type: in vivo, Cyperus difformis
giant foxtail = assay: Test B pre-/postemergence herbicide test; assay type: in vivo, Setaria faberi; conditions: for Foxtail, Giant plant response rating: postemergence
In short: as §3

cocklebur = assay: Test B pre-/postemergence herbicide test; assay type: in vivo, Xanthium strumarium; conditions: for Cocklebur plant response rating: postemergence, scale 0 (no effect) to 100 (complete control)
In short: as §2

barnyardgrass [8] = assay: Test C flooded paddy test; assay type: in vivo, Echinochloa crus-galli
In short: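 After a postemergence application at 1 to 4 leaves (plants 2–18 cm high), or at 2 leaves for barnyardgrass in flooded paddy, plants stayed in the greenhouse for 12 to 14 days. Damage was then judged visually relative to control plants, with 100 indicating complete control.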

rice [9] = assay: Test C flooded paddy test; assay type: in vivo, Oryza sativa
In short: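 Postemergence sprays applied to plants 2 to 18 cm tall (1- to 4-leaf stage); paddy species grown to 2-leaf stage under flooding. After 12 to 14 days in greenhouse, visual rating versus untreated controls on 0–100 scale (0 no effect, 100 complete control).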

rice [10] = assay: Test B pre-/postemergence herbicide test; assay type: in vivo, Oryza sativa; conditions: 0 = no effect, 100 = complete control, preemergence
In short: as §3

[11] = 125 g ai/ha, 0 = no effect, 100 = complete control, preemergence
[12] = 500 g ai/ha, visual rating, 0 = no effect, 100 = complete control, preemergence
[13] = 125 g ai/ha, visual rating, scale 0 (no effect) to 100 (complete control)
[14] = 500 g ai/ha, scale 0 to 100, 0 is no effect, 100 is complete control
[15] = 125 g ai/ha, scale 0 to 100 (0 no effect, 100 complete control)
[16] = 250 g ai/ha, scale of 0 to 100, 0 is no effect, 100 is complete control
[17] = 500 g ai/ha, visual rating after 12 to 14 days, scale 0 to 100 (0 no effect, 100 complete control)

CCn1nc(C(C)(C)C)cc1C(=O)Nc1cncc(C(=O)N(C)C)c1 [Compound 258]
80: Rice plant response rating (rice [1]) | Plant response rating, Sedge, Umbrella [7, 17]
5: Rice plant response rating (rice [9]; [16])
0: Morningglory plant response rating (0 to 100 scale) (morningglory; [11]) | Morningglory plant response rating (morningglory; [13]) | Crabgrass, Large plant response rating (large crabgrass; [13]) | Crabgrass, Large plant response rating (large crabgrass; [14]) | Pigweed plant response rating (0 to 100 scale) (pigweed; [11]) | Velvetleaf plant response rating (0 to 100 scale) (velvetleaf; [11]) | Velvetleaf plant response rating (velvetleaf; [13]) | Velvetleaf plant response rating (velvetleaf; [14]) | Surinam Grass plant response rating (0 to 100 scale) (Surinam grass; [11]) | Surinam Grass plant response rating (Surinam grass; [13]) | Barnyardgrass plant response rating (barnyardgrass [5]; 125 g ai/ha, visual rating) | Barnyardgrass plant response rating (barnyardgrass [5]; 500 g ai/ha, visual rating) | Corn plant response rating (0 to 100 scale) (corn; [11]) | Plant response rating, Corn (corn; [12]) | Corn plant response rating (corn; [13]) | Sedge, Umbrella plant response rating ([7]; 62 g ai/ha, scale 0 to 100) | Foxtail, Giant plant response rating (0 to 100 scale) (giant foxtail; [11]) | Foxtail, Giant plant response rating (giant foxtail; [13]) | Foxtail, Giant plant response rating (giant foxtail; [14]) | Cocklebur plant response rating (0 to 100 scale) (cocklebur; [11]) | Plant response rating, Cocklebur (cocklebur; [12]) | Barnyardgrass plant response rating (barnyardgrass [8]; 62 g ai/ha, scale 0 to 100 (0 no effect, 100 complete control)) | Barnyardgrass plant response rating (barnyardgrass [8]; [15]) | Rice plant response rating (rice [9]; 62 g ai/ha, scale 0 to 100) | Rice plant response rating (rice [9]; [15])
10: Plant response rating, Morningglory (morningglory; [12]) | Morningglory plant response rating (morningglory; [14]) | Crabgrass, Large plant response rating (0 to 100 scale) (large crabgrass; [11]) | Surinam Grass plant response rating (Surinam grass; [14]) | Blackgrass plant response rating (blackgrass; 125 g ai/ha) | Blackgrass plant response rating (blackgrass; 500 g ai/ha) | Corn plant response rating (corn; [14])
90: Ducksalad plant response rating (ducksalad [2]) | Plant response rating, Barnyardgrass (barnyardgrass [5]; [12]) | Plant response rating, Ducksalad (ducksalad [6]; [17]) | Plant response rating, Rice (rice [10]; 500 g ai/ha, visual rating)
50: Plant response rating, Crabgrass, Large (large crabgrass; [12]) | Pigweed plant response rating (pigweed; [13])
70: Lambsquarters plant response rating (lambsquarters; [14]) | Sedge, Umbrella plant response rating [3] | Barnyardgrass plant response rating (barnyardgrass [4]) | Barnyardgrass plant response rating (0 to 100 scale) (barnyardgrass [5]; [11]) | Ducksalad plant response rating (ducksalad [6]; [16]) | Sedge, Umbrella plant response rating [7, 16] | Plant response rating, Rice (rice [9]; [17])
60: Pigweed plant response rating (pigweed; [14]) | Plant response rating, Velvetleaf (velvetleaf; [12])
100: Plant response rating, Pigweed (pigweed; [12]) | Plant response rating, Lambsquarters (lambsquarters; [12])
15: Ducksalad plant response rating (ducksalad [6]; 62 g ai/ha, scale 0 to 100) | Barnyardgrass plant response rating (barnyardgrass [8]; [16])
30: Lambsquarters plant response rating (lambsquarters; [13]) | Oat, Wild plant response rating (wild oat; [14]) | Plant response rating, Surinam Grass (Surinam grass; [12]) | Cocklebur plant response rating (cocklebur; 500 g ai/ha, visual rating)
20: Oat, Wild plant response rating (wild oat; [13]) | Wheat plant response rating (wheat; [13]) | Wheat plant response rating (wheat; [14]) | Sedge, Umbrella plant response rating [7, 15] | Plant response rating, Foxtail, Giant (giant foxtail; [12]) | Cocklebur plant response rating (cocklebur; 125 g ai/ha, visual rating) | Rice plant response rating (0 to 100 scale) (rice [10]; 125 g ai/ha)
45: Ducksalad plant response rating (ducksalad [6]; [15]) | Plant response rating, Barnyardgrass (barnyardgrass [8]; [17])
